Reference: publication PMC9090415, “Discovery of small molecule inhibitors of Plasmodium falciparum apicoplast DNA polymerase” (Journal of Enzyme Inhibition and Medicinal Chemistry, 2022)

Target: P. falciparum apicoplast DNA polymerase (Pf-apPOL) (Plasmodium falciparum, UniProt Q8ILY1)
Assay: Fluorescence-based high-throughput DNA polymerase assay (molecular beacon), primary screen and dose-response;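 as to % inhibition ApPOL 90': test concentration in µM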;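 as to % inhibition apPOL 180': test concentration in µM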
Assay type: biochemical
How it was run: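 Single-point screening used 10 µM compound with 20 nM polymerase, 20 nM hairpin substrate and 6 µM dNTPs for 90 min at 25 °C. Confirmatory titrations (2.5–80 µM) followed fluorescence at three times, and IC50 was derived from a fit including a cooperativity term n.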

Sequence of P. falciparum apicoplast DNA polymerase (Pf-apPOL) (Q8ILY1 entry or part of it): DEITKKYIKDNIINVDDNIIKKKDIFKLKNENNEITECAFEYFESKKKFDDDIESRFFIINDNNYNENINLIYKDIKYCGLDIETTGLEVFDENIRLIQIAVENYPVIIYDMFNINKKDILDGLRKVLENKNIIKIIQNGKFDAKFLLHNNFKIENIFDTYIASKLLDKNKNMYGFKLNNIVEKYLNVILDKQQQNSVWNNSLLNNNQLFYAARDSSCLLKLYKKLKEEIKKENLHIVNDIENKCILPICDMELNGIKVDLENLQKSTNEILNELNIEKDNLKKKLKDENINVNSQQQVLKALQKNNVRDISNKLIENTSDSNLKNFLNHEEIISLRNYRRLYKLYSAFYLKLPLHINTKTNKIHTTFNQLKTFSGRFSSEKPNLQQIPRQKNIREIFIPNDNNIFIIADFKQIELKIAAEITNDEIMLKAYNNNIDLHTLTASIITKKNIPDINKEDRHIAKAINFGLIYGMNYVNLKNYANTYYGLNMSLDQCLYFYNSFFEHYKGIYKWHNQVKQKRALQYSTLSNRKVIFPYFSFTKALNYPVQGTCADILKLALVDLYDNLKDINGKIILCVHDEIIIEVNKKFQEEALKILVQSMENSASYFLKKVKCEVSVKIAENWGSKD

`COc1ccc(C(=O)Nc2cccc(-c3nc4ncccc4o3)c2)cc1[N+](=O)[O-]` [KU0063313] was tested, and the “DNA Pol” value (186 hits, value of the hit list (primary screen); unit not given; 90 min, 10 µM) was 31, the “% inhibition Apo pol 10'” value (DRC-1; 10'; concentration 2.5) was 4.335% and the “% inhibition Apo pol 10'” value (DRC-1; 10'; concentration 5) was 2.852%. For the same compound, the “% inhibition Apo pol 10'” value (DRC-1; 10'; concentration 10) was 35.1619%, the “% inhibition Apo pol 10'” value (DRC-1; 10'; concentration 20) was 59.4699% and the “% inhibition Apo pol 10'” value (DRC-1; 10'; concentration 40) was 4.461%. For the same compound, the “% inhibition Apo pol 10'” value (DRC-1; 10'; concentration 80) was 70.0671%, the “% inhibition Apol 90'” value (DRC-1; 90'; concentration 2.5) was 2.478% and the “% inhibition Apol 90'” value (DRC-1; 90'; concentration 5) was 4.0361%. For the same compound, the “% inhibition Apol 90'” value (DRC-1; 90'; concentration 10) was 26.4412%, the “% inhibition Apol 90'” value (DRC-1; 90'; concentration 20) was 41.4228% and the “% inhibition Apol 90'” value (DRC-1; 90'; concentration 40) was 2.829%. The “% inhibition Apol 90'” value (DRC-1; 90'; concentration 80) was 43.7849%, the “% inhibition apPOL 180'” value (DRC-1; 180'; concentration 2.5) was -1.663% and the “% inhibition apPOL 180'” value (DRC-1; 180'; concentration 5) was 2.317%. For the same compound, the “% inhibition apPOL 180'” value (DRC-1; 180'; concentration 10) was 20.5277%, the “% inhibition apPOL 180'” value (DRC-1; 180'; concentration 20) was 37.6573% and the “% inhibition apPOL 180'” value (DRC-1; 180'; concentration 40) was 6.705%. The “% inhibition apPOL 180'” value (DRC-1; 180'; concentration 80) was 38.9716%, the “% inhibition Apo pol 5'” value (DRC-2, 5', concentration 2.5) was 0.145% and the “% inhibition Apo pol 5'” value (DRC-2, 5', concentration 5) was 8%. The “% inhibition Apo pol 5'” value (DRC-2, 5', concentration 10) was 16%, the “% inhibition Apo pol 5'” value (DRC-2, 5', concentration 20) was 4% and the “% inhibition Apo pol 5'” value (DRC-2, 5', concentration 40) was 29%. For the same compound, the “% inhibition Apo pol 5'” value (DRC-2, 5', concentration 80) was 15%, the “% inhibition Apol 40'” value (DRC-2, 40', concentration 2.5) was 0.929% and the “% inhibition Apol 40'” value (DRC-2, 40', concentration 5) was 10%. For the same compound, the “% inhibition Apol 40'” value (DRC-2, 40', concentration 10) was 18%, the “% inhibition Apol 40'” value (DRC-2, 40', concentration 20) was 1.88% and the “% inhibition Apol 40'” value (DRC-2, 40', concentration 40) was 61%. The “% inhibition Apol 40'” value (DRC-2, 40', concentration 80) was 45%, the “% inhibition ApPOL 90'” value (DRC-2, 90', concentration 2.5) was 0.838% and the “% inhibition ApPOL 90'” value (DRC-2, 90', concentration 5) was 10%. For the same compound, the “% inhibition ApPOL 90'” value (DRC-2, 90', concentration 10) was 15%, the “% inhibition ApPOL 90'” value (DRC-2, 90', concentration 20) was -0.691% and the “% inhibition ApPOL 90'” value (DRC-2, 90', concentration 40) was 68%. For the same compound, the “% inhibition ApPOL 90'” value (DRC-2, 90', concentration 80) was 58%, the “% inhibition apPOL 180'” value (DRC-2, 180', concentration 2.5) was -5% and the “% inhibition apPOL 180'” value (DRC-2, 180', concentration 5) was 2.55%. For the same compound, the “% inhibition apPOL 180'” value (DRC-2, 180', concentration 10) was 8%, the “% inhibition apPOL 180'” value (DRC-2, 180', concentration 20) was -8% and the “% inhibition apPOL 180'” value (DRC-2, 180', concentration 40) was 73%. The “% inhibition apPOL 180'” value (DRC-2, 180', concentration 80) was 62%, the “% inhibition Apo pol 5'” value (DRC-2; 5'; concentration 5) was 8% and the “% inhibition Apo pol 5'” value (DRC-2; 5'; concentration 80) was 15%. The “% inhibition Apol 40'” value (DRC-2; 40'; concentration 5) was 10%, the “% inhibition ApPOL 90'” value (DRC-2; 90'; concentration 5) was 10% and the “% inhibition ApPOL 90'” value (DRC-2; 90'; concentration 10) was 15%. For the same compound, the “% inhibition apPOL 180'” value (DRC-2; 180'; concentration 10) was 8% and the “DNA Pol” value (primary screen value, 'DNA Pol' only; 90 min, 10 µM) was 31.
For `Oc1cccc2ccc(/C=C/c3ccc4c(c3)OCO4)nc12` [KU0025984], the “% inhibition Apo pol 10'” value (DRC-1; 10'; concentration 2.5) was -0.2183%, the “% inhibition Apo pol 10'” value (DRC-1; 10'; concentration 5) was 11.208% and the “% inhibition Apo pol 10'” value (DRC-1; 10'; concentration 10) was 38.8453%. For the same compound, the “% inhibition Apo pol 10'” value (DRC-1; 10'; concentration 20) was 79.6836%, the “% inhibition Apo pol 10'” value (DRC-1; 10'; concentration 40) was 89.9069% and the “% inhibition Apo pol 10'” value (DRC-1; 10'; concentration 80) was 93.1389%. For the same compound, the “% inhibition Apol 90'” value (DRC-1; 90'; concentration 2.5) was -7.534%, the “% inhibition Apol 90'” value (DRC-1; 90'; concentration 5) was 4.814% and the “% inhibition Apol 90'” value (DRC-1; 90'; concentration 10) was 24.6628%. For the same compound, the “% inhibition Apol 90'” value (DRC-1; 90'; concentration 20) was 70.7764%, the “% inhibition Apol 90'” value (DRC-1; 90'; concentration 40) was 83.7672% and the “% inhibition Apol 90'” value (DRC-1; 90'; concentration 80) was 87.8493%. The “% inhibition apPOL 180'” value (DRC-1; 180'; concentration 2.5) was -11.2426%, the “% inhibition apPOL 180'” value (DRC-1; 180'; concentration 5) was -1.027% and the “% inhibition apPOL 180'” value (DRC-1; 180'; concentration 10) was 13.0398%. For the same compound, the “% inhibition apPOL 180'” value (DRC-1; 180'; concentration 20) was 59.792%, the “% inhibition apPOL 180'” value (DRC-1; 180'; concentration 40) was 76.8882% and the “% inhibition apPOL 180'” value (DRC-1; 180'; concentration 80) was 82.4453%. The “% inhibition Apo pol 5'” value (DRC-2, 5', concentration 2.5 (unit not given)) was 14%, the “% inhibition Apol 40'” value (DRC-2, 40', concentration 2.5 (unit not given)) was 14% and the “% inhibition ApPOL 90'” value (DRC-2, 90', concentration 20 (unit not given)) was 70%. The “% inhibition apPOL 180'” value (DRC-2, 180', concentration 5 (unit not given)) was 12%, the “% inhibition apPOL 180'” value (DRC-2, 180', concentration 40 (unit not given)) was 70% and the “% inhibition Apo pol 5'” value (DRC-2; 5'; concentration 2.5) was 14%. For the same compound, the “% inhibition Apo pol 5'” value (DRC-2; 5'; concentration 5) was 21%, the “% inhibition Apo pol 5'” value (DRC-2; 5'; concentration 10) was 38% and the “% inhibition Apo pol 5'” value (DRC-2; 5'; concentration 20) was 50%. For the same compound, the “% inhibition Apo pol 5'” value (DRC-2; 5'; concentration 40) was 52%, the “% inhibition Apo pol 5'” value (DRC-2; 5'; concentration 80) was 53% and the “% inhibition Apol 40'” value (DRC-2; 40'; concentration 2.5) was 14%. For the same compound, the “% inhibition Apol 40'” value (DRC-2; 40'; concentration 5) was 25%, the “% inhibition Apol 40'” value (DRC-2; 40'; concentration 10) was 47% and the “% inhibition Apol 40'” value (DRC-2; 40'; concentration 20) was 69%. The “% inhibition Apol 40'” value (DRC-2; 40'; concentration 40) was 71%, the “% inhibition Apol 40'” value (DRC-2; 40'; concentration 80) was 74% and the “% inhibition ApPOL 90'” value (DRC-2; 90'; concentration 2.5) was 12%. For the same compound, the “% inhibition ApPOL 90'” value (DRC-2; 90'; concentration 2.5 (unit not given)) was 12%, the “% inhibition ApPOL 90'” value (DRC-2; 90'; concentration 5) was 24% and the “% inhibition ApPOL 90'” value (DRC-2; 90'; concentration 10) was 45%. The “% inhibition ApPOL 90'” value (DRC-2; 90'; concentration 20) was 70%, the “% inhibition ApPOL 90'” value (DRC-2; 90'; concentration 40) was 72% and the “% inhibition ApPOL 90'” value (DRC-2; 90'; concentration 80) was 77%. For the same compound, the “% inhibition apPOL 180'” value (DRC-2; 180'; concentration 2.5) was -0.452%, the “% inhibition apPOL 180'” value (DRC-2; 180'; concentration 5) was 12% and the “% inhibition apPOL 180'” value (DRC-2; 180'; concentration 10) was 35%. The “% inhibition apPOL 180'” value (DRC-2; 180'; concentration 20) was 66%, the “% inhibition apPOL 180'” value (DRC-2; 180'; concentration 40) was 70% and the “% inhibition apPOL 180'” value (DRC-2; 180'; concentration 80) was 78%. The “DNA Pol” value (primary screen value of the 186 hits; unit not given; 90 min, 10 µM) was 45 and the “DNA Pol” value (primary screen value, head "DNA Pol", unit not given; 90 min, 10 µM) was 45.
With `O=C(O)C(=O)Nc1nc(-c2ccc3c(c2)OCCO3)cs1` [Molecule 82] the IC50 (supplemental file 2, sheet IC50 nontoxic compounds; Pf-apPOL) was 40.5 µM.
